Measurements reported in patent US11414424B2, “Cardiac sarcomere inhibitors” (Cytokinetics, Inc., priority 2018, dated 2022).

System: bovine cardiac myofibrils
Experiment: Myofibril assay: PK/LDH-coupled steady-state ATPase activity of skinned bovine cardiac myofibrils
Type: biochemical
Details: Ca2+ activating to 75% of maximal rate
Outline: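 Steady-state ATPase of detergent-skinned bovine left-ventricular myofibrils (1 mg/mL), PK/LDH-coupled NADH read at 340 nm, in PIPES/MgCl2 buffer pH 6.8 with 50 μM ATP, 0.6 mM EGTA and CaCl2 set for 50% or 75% activation. Inhibition of activity measured.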

Row | CDMF75 IC15 | SMILES
1 | 200 nM | CNC(=O)c1ccc(N2CC3(C2)C(=O)N(c2ccc(C#N)cc2F)CC(=O)N3Cc2ccc(C(F)(F)F)cc2)cc1 [Compound 540, 4-(8-(4-cyano-2-fluorophenyl)-6,9-dioxo-5-(4-(trifluoromethyl)benzyl)-2,5,8-triazaspiro[3.5]nonan-2-yl)-N-methylbenzamide]
2 | 200 nM | CNc1cc(N2CC3(C2)C(=O)N(c2ccc(C#N)cc2F)CC(=O)N3Cc2ccc(C(F)(F)F)cc2)ccc1C(=O)OC [Compound 541, methyl 4-(8-(4-cyano-2-fluorophenyl)-6,9-dioxo-5-(4-(trifluoromethyl)benzyl)-2,5,8-triazaspiro[3.5]nonan-2-yl)-2-(methylamino)benzoate]
3 | 200 nM | CNC(=O)c1ccc(N2CC3(C2)C(=O)N(c2ccc(C#N)cc2F)CC(=O)N3Cc2ccc(C(F)(F)F)cc2)cc1NC [Compound 542, 4-(8-(4-cyano-2-fluoro-phenyl)-6,9-dioxo-5-(4-(trifluoromethyl)benzyl)-2,5,8-triazaspiro[3.5]nonan-2-yl)-N-methyl-2-(methylamino)benzamide]
4 | 300 nM | CNc1ccc(N2CC3(C2)C(=O)N(c2ccc(C#N)cc2F)CC(=O)N3Cc2ccc(C(F)(F)F)cc2)cc1C(=O)OC [Compound 543, methyl 5-(8-(4-cyano-2-fluorophenyl)-6,9-dioxo-5-(4-(trifluoromethyl)benzyl)-2,5,8-triazaspiro[3.5]nonan-2-yl)-2-(methylamino)-benzoate]
5 | 300 nM | CNc1cccc(N2CC3(C2)C(=O)N(c2ccc(C#N)cc2F)CC(=O)N3Cc2ccc(C(F)(F)F)cc2)c1C(=O)OC [Compound 544, methyl 2-(8-(4-cyano-2-fluorophenyl)-6,9-dioxo-5-(4-(trifluoromethyl)benzyl)-2,5,8-triazaspiro[3.5]nonan-2-yl)-6-(methylamino)-benzoate]
6 | 200 nM | CNC(=O)c1cc(N2CC3(C2)C(=O)N(c2ccc(C#N)cc2F)CC(=O)N3Cc2ccc(C(F)(F)F)cc2)ccc1NC [Compound 545, 5-(8-(4-cyano-2-fluorophenyl)-6,9-dioxo-5-(4-(trifluoromethyl)benzyl)-2,5,8-triazaspiro[3.5]nonan-2-yl)-N-methyl-2-(methylamino)benzamide]
7 | 1000 nM | CNc1c(C(=O)OC)cccc1N1CC2(C1)C(=O)N(c1ccc(C#N)cc1F)CC(=O)N2Cc1ccc(C(F)(F)F)cc1 [Compound 546, methyl 3-(8-(4-cyano-2-fluorophenyl)-6,9-dioxo-5-(4-(trifluoromethyl)benzyl)-2,5,8-triazaspiro[3.5]nonan-2-yl)-2-(methylamino)-benzoate]
8 | 400 nM | CNC(=O)c1cccc(N2CC3(C2)C(=O)N(c2ccc(C#N)cc2F)CC(=O)N3Cc2ccc(C(F)(F)F)cc2)c1NC [Compound 547, 3-(8-(4-cyano-2-fluorophenyl)-6,9-dioxo-5-(4-(trifluoromethyl)benzyl)-2,5,8-triazaspiro[3.5]nonan-2-yl)-N-methyl-2-(methylamino)benzamide]
9 | 600 nM | O=C1CN(c2ncc(Cl)cc2F)C(=O)C2(CCC2)N1Cc1ccc(C(F)(F)F)cc1 [Compound 548, 8-(5-chloro-3-fluoropyridin-2-yl)-5-(4-(trifluoromethyl)-benzyl)-5,8-diazaspiro-[3.5]nonane-6,9-dione]
10 | 800 nM | O=C1CN(c2ncc(Cl)cc2F)C(=O)C2(CC2)N1Cc1ccc(C(F)(F)F)cc1 [Compound 550, 7-(5-chloro-3-fluoropyridin-2-yl)-4-(4-(trifluoromethyl)benzyl)-4,7-diazaspiro[2.5]octane-5,8-dione]
11 | 2480 nM | O=C1CN(c2ncc(Cl)cc2F)C(=O)C2(COC2)N1Cc1ccc(C(F)(F)F)cc1 [Compound 551, 8-(5-chloro-3-fluoropyridin-2-yl)-5-(4-(trifluoromethyl)-benzyl)-2-oxa-5,8-diazaspiro[3.5]nonane-6,9-dione]
12 | 500 nM | CNC(=O)N1CC2(C1)C(=O)N(c1ncc(Cl)cc1F)CC(=O)N2Cc1ccc(C(F)(F)F)cc1 [Compound 552, 8-(5-chloro-3-fluoropyridin-2-yl)-N-methyl-6,9-dioxo-5-(4-(trifluoromethyl)-benzyl)-2,5,8-triazaspiro-[3.5]nonane-2-carboxamide]
13 | 1400 nM | O=C1CN(c2ncc(Cl)cc2F)C(=O)C2(CCOC2)N1Cc1ccc(C(F)(F)F)cc1 (stereo not shown) [Compound 553, 9-(5-chloro-3-fluoropyridin-2-yl)-6-(4-(trifluoromethyl)-benzyl)-2-oxa-6,9-diazaspiro[4.5]decane-7,10-dione]
14 | 400 nM | CC(C)[C@H]1C(=O)N(c2ncc(Cl)cc2F)CC(=O)N1Cc1ccc(C(F)(F)F)cc1 [Compound 554, (S)-1-(5-chloro-3-fluoro-pyridin-2-yl)-3-isopropyl-4-(4-(trifluoromethyl)-benzyl)piperazine-2,5-dione]
15 | 900 nM | O=C1[C@H](C2CCC2)N(Cc2ccc(C(F)(F)F)cc2)C(=O)CN1c1ncc(Cl)cc1F [Compound 555, (S)-1-(5-chloro-3-fluoro-pyridin-2-yl)-3-cyclobutyl-4-(4-(trifluoromethyl)-benzyl)piperazine-2,5-dione]
16 | 2700 nM | CC(=O)N1CC2(C1)C(=O)N(c1ncc(Cl)cc1F)CC(=O)N2[C@@H](C)c1ccc(Cl)cc1 [Compound 556, (S)-2-acetyl-8-(5-chloro-3-fluoropyridin-2-yl)-5-(1-(4-chlorophenyl)ethyl)-2,5,8-triazaspiro[3.5]nonane-6,9-dione]
17 | 7040 nM | C[C@@H](c1ccc(Cl)cc1)N1C(=O)CN(c2ncc(Cl)cc2F)C(=O)C12COC2 [Compound 558]
18 | 25100 nM | C[C@@H](c1ccc(Cl)cc1)N1C(=O)CN(c2ncc(Cl)cc2F)C(=O)C12CN(C(=O)NC1CC1)C2 [Compound 559, (S)-8-(5-chloro-3-fluoro-pyridin-2-yl)-5-(1-(4-chlorophenyl)ethyl)-N-cyclopropyl-6,9-dioxo-2,5,8-triazaspiro[3.5]-nonane-2-carboxamide]
19 | 8600 nM | CCNC(=O)N1CC2(C1)C(=O)N(c1ncc(Cl)cc1F)CC(=O)N2[C@@H](C)c1ccc(Cl)cc1 [Compound 560, (S)-8-(5-chloro-3-fluoro-pyridin-2-yl)-5-(1-(4-chlorophenyl)ethyl)-N-ethyl-6,9-dioxo-2,5,8-triazaspiro[3.5]nonane-2-carboxamide]
20 | 19800 nM | CC(C)NC(=O)N1CC2(C1)C(=O)N(c1ncc(Cl)cc1F)CC(=O)N2[C@@H](C)c1ccc(Cl)cc1 [Compound 561, (S)-8-(5-chloro-3-fluoro-pyridin-2-yl)-5-(1-(4-chlorophenyl)ethyl)-N-isopropyl-6,9-dioxo-2,5,8-triazaspiro[3.5]nonane-2-carboxamide]
21 | 29000 nM | C[C@@H](c1ccc(Cl)cc1)N1C(=O)CN(c2ncc(Cl)cc2F)C(=O)C12CN(C(=O)NC1CCOCC1)C2 [Compound 562, (S)-8-(5-chloro-3-fluoro-pyridin-2-yl)-5-(1-(4-chlorophenyl)ethyl)-6,9-dioxo-N-(tetrahydro-2H-pyran-4-yl)-2,5,8-triazaspiro[3.5]nonane-2-carboxamide]
22 | 2200 nM | CNC(=O)N1CC2(C1)C(=O)N(c1ncc(Cl)cc1F)CC(=O)N2[C@@H](C)c1ccc(Cl)cc1 [Compound 563, (S)-8-(5-chloro-3-fluoro-pyridin-2-yl)-5-(1-(4-chlorophenyl)ethyl)-N-methyl-6,9-dioxo-2,5,8-triazaspiro[3.5]nonane-2-carboxamide]
